Results on 4 compounds are retold here after US11530229B2, “Cyano cyclobutyl compounds for CBL-B inhibition and uses thereof” (Nurix Therapeutics, Inc., priority 2019, dated 2022).

In general, IC50 refers to the concentration that gives 50% inhibition.

Experiment [1] concerns the target T1, Cbl-b (Homo sapiens (Human), UniProt Q13191). In words: Cbl-b displacement assay (Cbl-b inhibition assay), Biological Example 1. The format is binding. The method, boiled down:
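Probe displacement read as TR-FRET (520/620 nm) after 1 h with 2 nM streptavidin-terbium and 150 nM BODIPY FL-labelled inhibitor probe, about EC40. Before that, compound in 1% DMSO sat 1 h at room temperature with N-Avitag biotinylated Cbl-b 36–427, 0.5 nM (High) or 0.125 nM (Low), in pH 7.5 HEPES buffer.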

Experiment [2] deals with T1, Cbl-b. The experiment in a line: Cbl-b displacement assay (Cbl-b inhibition assay), Biological Example 12. The format is binding. The following applies: 0.125 nM Cbl-b final concentration (Low), Table 7; read-out: Cbl-b IC50 (Low). As for the experimental part:
(§1) Candidate compounds were evaluated for their ability to bind and inhibit Cbl-b, an E3 ubiquitin-protein ligase, as evidenced by their ability to displace a fluorophore-labeled probe bound to Cbl-b.
(§2) The ability of candidate compounds to displace a known inhibitor and thereby inhibit Cbl-b activity was measured by monitoring the interaction of Cbl-b with a fluorophore-labeled probe in the presence of the candidate compound. A truncated variant of Cbl-b (UniProt number Q13191) containing residues 36-427 and an Avitag at its N-terminus was co-expressed with BirA biotin ligase and purified using a standard protocol (see Dou et al., Nature Structural and Molecular Biology 8: 982-987, 2013; Avidity LLC).
Fluorescently-labeled inhibitor probe was synthesized and tagged with BODIPY FL. Cbl-b displacement assays were performed in a 384-well plate at room temperature in a […] by pre-incubating 0.5 nM Cbl-b or 0.125 nM Cbl-b (final concentration, indicated as “High” and “Low,” respectively) in an assay buffer containing 20 mM HEPES pH 7.5, 150 mM NaCl, 0.01% Triton X-100, 0.01% BSA and 0.5 mM TCEP in the presence of a candidate compound in 1% DMSO (final concentration) for one hour. After incubation in the presence of the candidate compound, the plate was incubated for an additional one hour in the presence of an approximate EC40 binding saturation consisting of 150 nM fluorescently-labeled inhibitor probe and 2 nM Streptavidin-Terbium (Cisbio) (final concentrations). Following the one hour incubation, the plates were read for TR-FRET signal at […] using an Envision plate reader (Perkin Elmer).
(§3) The resulting data for the Cbl-b activity assays were analyzed using standard methods to determine the IC50 values for the tested compounds.

For experiment [3], the target named is T1, Cbl-b. The experiment in a line: Cbl-b displacement assay (Cbl-b inhibition assay), Biological Example 8. The following applies: 0.125 nM Cbl-b final concentration (Low), Table 4; read-out: Cbl-b IC50 (Low). The experiment is classed as binding. How it is done: as §1, §2
Fluorescently-labeled inhibitor probe was synthesized and tagged with BODIPY FL. Cbl-b displacement assays were performed in a 384-well plate at room temperature in a […] by pre-incubating 0.5 nM Cbl-b or 0.125 nM Cbl-b (final concentration, indicated as “High” and “Low,” respectively) in an assay buffer containing 20 mM HEPES pH 7.5, 150 mM NaCl, 0.01% Triton X-100, 0.01% BSA, and 0.5 mM TCEP in the presence of a candidate compound in 1% DMSO (final concentration) for 1 hour. After incubation in the presence of the candidate compound, the plate was incubated for an additional one hour in the presence of an approximate EC40 binding saturation consisting of 150 nM fluorescently-labeled inhibitor probe and 2 nM Streptavidin-Terbium (Cisbio) (final concentrations). Following the one hour incubation, the plates were read for TR-FRET signal at […] using an Envision plate reader (Perkin Elmer).
as §3

Experiment [4] deals with primary human total T-cells. The experiment in a line: T-cell activation, IL-2 secretion, Biological Example 2. The format is cell-based. The following applies: 48 hours, fold change over baseline; for fold induction at 0.3 µM: 0.3 μM inhibitor; for fold induction at 1 µM: 1 μM inhibitor; for fold induction at 3 µM: 3 μM inhibitor.
Experiment [5] has as its system primary human total T-cells. In words: T-cell activation, CD25 surface staining, Biological Example 2. The experiment is classed as cell-based. The following applies: 48 hours, fold change over baseline; for fold induction at 0.3 µM: 0.3 μM inhibitor; for fold induction at 1 µM: 1 μM inhibitor; for fold induction at 3 µM: 3 μM inhibitor.
In experiment [6] the test system is primary human total T-cells. The experiment in a line: T-cell activation, IL-2 secretion, Biological Example 9. The settings on record: 48 hours, fold change over baseline, Table 5; for IL-2 secretion CD3/CD28 0.3 μM / IL-2 secretion CD3/CD28 1 μM: anti-CD3 and anti-CD28 co-stimulation; for IL-2 secretion CD3/CD28 0.3 μM: 0.3 μM inhibitor; for IL-2 secretion CD3/CD28 1 μM / IL-2 secretion CD3 1 μM: 1 μM inhibitor; for IL-2 secretion CD3 1 μM / IL-2 secretion CD3 3 μM: anti-CD3 stimulation alone; for IL-2 secretion CD3 3 μM: 3 μM inhibitor. The format is cell-based.

Experiment [7] concerns primary human total T-cells. The experiment in a line: T-cell activation, IL-2 secretion, Biological Example 13. The format is cell-based. The settings on record: 48 hours, fold change over baseline, Table 8; for IL-2 secretion CD3/CD28 0.3 μM / IL-2 secretion CD3/CD28 1 μM: anti-CD3 and anti-CD28 co-stimulation; for IL-2 secretion CD3/CD28 0.3 μM: 0.3 μM inhibitor; for IL-2 secretion CD3/CD28 1 μM / IL-2 secretion CD3 1 μM: 1 μM inhibitor; for IL-2 secretion CD3 1 μM / IL-2 secretion CD3 3 μM: anti-CD3 stimulation alone; for IL-2 secretion CD3 3 μM: 3 μM inhibitor.

[8] abbreviates: 0.125 nM Cbl-b final concentration (Low), read-out: Cbl-b activity IC50 (Low).
Where [9] appears, read: read-out: IC50 values in the Cbl-b inhibition assay of Biological Example 1.
[10] abbreviates: anti-CD3 and anti-CD28 co-stimulation.
The mark [11] stands for this setting: anti-CD3 and anti-CD28 co-stimulation, read-out: IL-2 secretion CD3/CD28 1 μM.
The mark [12] stands for this setting: anti-CD3 stimulation alone, read-out: IL-2 secretion CD3 1 μM.
Where [13] appears, read: anti-CD3 and anti-CD28 co-stimulation, read-out: CD25 staining CD3/CD28 1 μM.
The mark [14] stands for this setting: anti-CD3 stimulation alone, read-out: CD25 staining CD3 1 μM.

T1 sequence (Q13191 36-427): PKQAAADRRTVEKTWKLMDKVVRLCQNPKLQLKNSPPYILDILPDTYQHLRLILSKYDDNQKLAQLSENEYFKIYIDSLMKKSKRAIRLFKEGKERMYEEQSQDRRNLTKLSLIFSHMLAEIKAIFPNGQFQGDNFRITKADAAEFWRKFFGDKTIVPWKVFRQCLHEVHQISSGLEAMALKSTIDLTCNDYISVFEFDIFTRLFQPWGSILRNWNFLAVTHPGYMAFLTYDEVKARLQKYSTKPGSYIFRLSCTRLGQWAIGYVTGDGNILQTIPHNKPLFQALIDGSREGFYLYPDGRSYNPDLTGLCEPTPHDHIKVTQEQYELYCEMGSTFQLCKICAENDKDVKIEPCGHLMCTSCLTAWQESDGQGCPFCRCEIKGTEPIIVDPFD

Consider `Cn1cnnc1C[C@]1(c2cccc(N3Cc4c(cc(CN5CCC6(CC6)C5)cc4C(F)(F)F)C3=O)c2)C[C@H](C#N)C1` [Compound 4, (1r,3r)-3-(3-(6-((5-azaspiro[2.4]heptan-5-yl)methyl)-1-oxo-4-(trifluoromethyl)isoindolin-2-yl)phenyl)-3-((4-methyl-4H-1,2,4-triazol-3-yl)methyl)cyclobutane-1-carbonitrile], for which the IC50 in experiment [1] (setting [8]) was in the range of 1 to 2 nM; in experiment [1] (setting [9]), 1 to 2 nM; in experiment [2] it was 1 to 5 nM; in experiment [3], 1 to 5 nM. In addition, the values for the fold induction at 0.3 µM in experiment [4] (setting [10]) and in experiment [5] (setting [10]) were at most 15 and 1.24 to 1.39, respectively. Moreover, the fold induction at 1 µM in experiment [4] (setting [11]) was 15 to 20; in experiment [4] (setting [12]), 0.4 to 0.85; in experiment [5] (setting [13]), 1.24 to 1.39; in experiment [5] (setting [14]), over 1.15. The fold induction at 3 µM in experiment [4] (anti-CD3 stimulation alone) is 0.4 to 0.85; in experiment [5] (anti-CD3 stimulation alone), over 1.15. Further, the “IL-2 secretion CD3/CD28 0.3 μM” value in experiment [6] and in experiment [7] was “A (A indicates >15 fold)” throughout. In addition, the “IL-2 secretion CD3/CD28 1 μM” value in experiment [6] and in experiment [7] was “A (A indicates >15 fold)” each time. Moreover, the “IL-2 secretion CD3 1 μM” value in experiment [6] and in experiment [7] was “A (A indicates >0.66 fold)” each time. The “IL-2 secretion CD3 3 μM” value in experiment [6] and in experiment [7] was “A (A indicates >0.66 fold)” throughout.

For the compound `C[C@@H]1CN(Cc2cc3c(c(C(F)(F)F)c2)CN(c2cccc([C@]4(Cc5nncn5C)C[C@@H](C#N)C4)c2)C3=O)CCC1(F)F` [Compound 11, (1R,3r)-3-(3-(6-(((R)-4,4-difluoro-3-methylpiperidin-1-yl)methyl)-1-oxo-4-(trifluoromethyl)isoindolin-2-yl)phenyl)-3-((4-methyl-4H-1,2,4-triazol-3-yl)methyl)cyclobutane-1-carbonitrile], the concentration for half-maximal inhibition (IC50) in experiment [1] (setting [8]) lay in the range of 1 to 2 nM; in experiment [1] (setting [9]) it was 1 to 2 nM; in experiment [2], 1 to 5 nM; in experiment [3], 1 to 5 nM. In addition, the fold induction at 0.3 µM is over 20 in experiment [4] (setting [10]) and 1.24 to 1.39 in experiment [5] (setting [10]). Further, the fold induction at 1 µM in experiment [4] (setting [11]) was over 20; in experiment [4] (setting [12]), over 0.85; in experiment [5] (setting [13]) it was 1.24 to 1.39; in experiment [5] (setting [14]) it was 1 to 1.15. For the same compound, the fold induction at 3 µM in experiment [4] (anti-CD3 stimulation alone) is over 0.85; in experiment [5] (anti-CD3 stimulation alone) it was at most 1. The “IL-2 secretion CD3/CD28 0.3 μM” value in experiment [6] and in experiment [7] was “A (A indicates >15 fold)” in each case. Also, the “IL-2 secretion CD3/CD28 1 μM” value in experiment [6] and in experiment [7] was “A (A indicates >15 fold)” in each case. For the same compound, the “IL-2 secretion CD3 1 μM” value in experiment [6] and in experiment [7] was “A (A indicates >0.66 fold)” in each case. In addition, the “IL-2 secretion CD3 3 μM” value in experiment [6] and in experiment [7] was “A (A indicates >0.66 fold)” in each case.

Consider `C[C@H]1CCCN(Cc2cc3c(c(C(F)(F)F)c2)CN(c2cccc([C@]4(Cc5nncn5C)C[C@@H](C#N)C4)c2)C3=O)C1` [Compound 19, (1R,3r)-3-((4-methyl-4H-1,2,4-triazol-3-yl)methyl)-3-(3-(6-(((S)-3-methylpiperidin-1-yl)methyl)-1-oxo-4-(trifluoromethyl)isoindolin-2-yl)phenyl)cyclobutane-1-carbonitrile], for which the IC50 in experiment [1] (setting [8]), in experiment [2] and in experiment [3] was under 1 nM throughout. In addition, the fold induction at 0.3 µM in experiment [4] (setting [10]) was over 20; in experiment [5] (setting [10]), over 1.39. For the same compound, the fold induction at 1 µM in experiment [4] (setting [11]) was over 20; in experiment [4] (setting [12]), over 0.85; in experiment [5] (setting [13]), over 1.39; in experiment [5] (setting [14]), over 1.15. Moreover, the fold induction at 3 µM was over 0.85 in experiment [4] (anti-CD3 stimulation alone) and over 1.15 in experiment [5] (anti-CD3 stimulation alone). Besides, the “IL-2 secretion CD3/CD28 0.3 μM” value in experiment [6] and in experiment [7] was “A (A indicates >15 fold)” throughout. The “IL-2 secretion CD3/CD28 1 μM” value in experiment [6] and in experiment [7] was “A (A indicates >15 fold)” throughout. Further, the “IL-2 secretion CD3 1 μM” value in experiment [6] and in experiment [7] was “A (A indicates >0.66 fold)” each time. Further, the “IL-2 secretion CD3 3 μM” value in experiment [6] and in experiment [7] was “A (A indicates >0.66 fold)” in each case.

For `Cn1cnnc1C[C@]1(c2cccc(N3Cc4c(cc(CN[C@H]5CCC(F)(F)C5)cc4C(F)(F)F)C3=O)c2)C[C@H](C#N)C1` [Compound 20, (1R3r)-3-(3-(6-((((S)-3,3-difluorocyclopentyl)amino)methyl)-1-oxo-4-(trifluoromethyl)isoindolin-2-yl)phenyl)-3-((4-methyl-4H-1,2,4-triazol-3-yl)methyl)cyclobutane-1-carbonitrile], the IC50 in experiment [1] (setting [8]), in experiment [2] and in experiment [3] was under 1 nM in each case. Moreover, the fold induction at 0.3 µM in experiment [4] (setting [10]) is over 20; in experiment [5] (setting [10]) it was over 1.39. The fold induction at 1 µM in experiment [4] (setting [11]) is over 20; in experiment [4] (setting [12]) it was over 0.85; in experiment [5] (setting [13]) it was over 1.39; in experiment [5] (setting [14]), over 1.15. Moreover, the fold induction at 3 µM is over 0.85 in experiment [4] (anti-CD3 stimulation alone) and over 1.15 in experiment [5] (anti-CD3 stimulation alone). Further, the “IL-2 secretion CD3/CD28 0.3 μM” value in experiment [6] and in experiment [7] was “A (A indicates >15 fold)” in each case. For the same compound, the “IL-2 secretion CD3/CD28 1 μM” value in experiment [6] and in experiment [7] was “A (A indicates >15 fold)” in each case. The “IL-2 secretion CD3 1 μM” value in experiment [6] and in experiment [7] was “A (A indicates >0.66 fold)” each time. The “IL-2 secretion CD3 3 μM” value in experiment [6] and in experiment [7] was “A (A indicates >0.66 fold)” each time.
